Measured values published in patent publication US9907783B2, “Methods of treating skin conditions using cyclolignan compounds” (m. Alphabet 2, L.L.C., priority 2013, dated 2018).

Test system: actinic keratoses
Assay: Randomized, blinded patient study of topical picropodophyllin solution for actinic keratoses (lesion count in treatment area)
Format: in vivo, patients
Settings: topical twice daily for 1 week
Experimental: To date, 56 patients have been studied to determine the efficacy of picropodophyllin in treating actinic keratoses. The patients were randomized into four groups, and the patients in each group were treated with a solution containing either 0.5%, 1.25%, or 2.0% picropodophyllin (w/v) in propylene glycol, or a placebo constituting only the vehicle propylene glycol. The picropodophyllin solution was prepared in 100% propylene glycol solution. The solutions were prepared aseptically following GMP protocols. The affected areas of the body variously included the scalp, face, arms, and legs. Without knowing which one of the four solutions they were applying, the subjects self-applied one of the solutions to the skin. After initial application, the subjects gently massaged the solutions into their skin. This was done twice daily for 1 week. Lesions (actinic keratosis) were palpated and visualized by a trained lesion counter who is a board certified dermatologist. The same investigator evaluated each subject at each visit for consistency. The subjects were evaluated at baseline, day 3, day 7, day 14, day 28, day 56 and day 90. Within the treatment area, the number of lesions were counted, regardless of their size. The change in the number of lesions (% decline from baseline) within the treatment area was calculated and the results are shown in the table below: […]

COc1cc([C@@H]2c3cc4c(cc3[C@H](O)[C@H]3COC(=O)[C@@H]23)OCO4)cc(OC)c1OC [PPP, picropodophyllin]
% Decline from Baseline (number of lesions in treatment area) (0.50% PPP w/v in propylene glycol, 28 days): −56^AB %
% Decline from Baseline (number of lesions in treatment area) (0.50% PPP w/v in propylene glycol, 56 days): −82^AB %
% Decline from Baseline (number of lesions in treatment area) (0.50% PPP w/v in propylene glycol, 90 days): −90^AB %
% Decline from Baseline (number of lesions in treatment area) (1.25% PPP w/v in propylene glycol, 28 days): −53^AB %
% Decline from Baseline (number of lesions in treatment area) (1.25% PPP w/v in propylene glycol, 56 days): −73^AB %
% Decline from Baseline (number of lesions in treatment area) (1.25% PPP w/v in propylene glycol, 90 days): −65^AB %
% Decline from Baseline (number of lesions in treatment area) (2.00% PPP w/v in propylene glycol, 28 days): −17%
% Decline from Baseline (number of lesions in treatment area) (2.00% PPP w/v in propylene glycol, 56 days): −55^AB %
% Decline from Baseline (number of lesions in treatment area) (2.00% PPP w/v in propylene glycol, 90 days): −84^AB %
